Experimental data taken from PMC4496826, “Nanostructured lipid carriers for percutaneous administration of alkaloids isolated from Aconitum sinomontanum” (Journal of Nanobiotechnology, 2015).
≈ marks a conversion by molar mass, not a printed value. Where a name gives a salt, the structure may show the parent alone.

Assays:
CCC-ESF cells = format: cell-based, human; details: 30 min pre-incubation with inhibitor, vs. control
Description: (§1) Endocytosis mechanisms were assessed using cellular uptake assays in the presence of chemicals known to inhibit specific endocytosis pathways. Cells were incubated with CPZ, FLP, GNT, CCD, DMA, NaN3, or MS (at […], respectively) for 30 min at 37°C. After exposure to these inhibitors, 200 µL of C6-labeled NLCs was added to each well and incubated for 30 min. After the incubation, cells were prepared for flow cytometry as described earlier and the data for at least 20,000 cells were acquired. The cells treated with C6-labeled NLCs alone were considered as the control cells.

HaCaT cells = test: Endocytic pathway: uptake of C6-labeled NLCs in presence of endocytosis inhibitors; format: cell-based, human; details: 30 min pre-incubation with inhibitor, vs. control
Description: as §1

[1] = design: method as in ref 6 = [6]; 6. Liang ZF Lyu YP Yuan W Liu YL Zhu XC Dose-effect relationship of lappaconitine Chin Pharmacol Bull 1993 9 146; details: per os; cited from earlier work
mice = system: mice; design: method as in ref 5 = [5]; 5. Guan YZ Shi YB Wang H Summary on the advanced research of lappaconite hydrobromide Theory Pr Chin Med 2005 15 1838 1840; details: cited from earlier work
rats = system: rats; design: method as in ref 5 = [5]; 5. Guan YZ Shi YB Wang H Summary on the advanced research of lappaconite hydrobromide Theory Pr Chin Med 2005 15 1838 1840; details: cited from earlier work
[2] = Aqueous solubility in the release medium; format: physicochemical; details: normal saline containing 20% PEG 400

| Molecule | effect on internalization/uptake of C6-labeled NLCs (CCC-ESF cells) | other results |
| --- | --- | --- |
| C=C1[C@@H](C)[C@H]2[C@H](Cc3ccccc3)NC(=O)[C@]23[C@H](OC(C)=O)/C=C/[C@@](C)(O)C(=O)[C@@H](C)C/C=C/[C@H]3[C@@H]1O [CCD, cytochalasin D] | significantly inhibited | – |
| CN(C)CCCN1c2ccccc2Sc2ccc(Cl)cc21 [CPZ, chlorpromazine] | did not significantly affect | – |
| CN(C)c1nc(N)c(C(=O)NC(=N)N)nc1Cl [DMA, 5-(N,N-dimethyl)-amiloride hydrochloride] | did not significantly affect | – |
| CCCCC[C@@H](O)[C@H]1C(=O)O[C@H](C)[C@@H](O)/C=C/C=C/C=C/C=C/C=C(\C)[C@@H](O)C[C@H](O)C[C@H](O)C[C@H](O)C[C@H](O)C[C@H](O)C[C@@H]1O [FLP, filipin III] | significantly inhibited | effect on uptake of C6-labeled NLCs (average fluorescence intensity) (HaCaT cells): significantly reduced |
| O=c1c(-c2ccc(O)cc2)coc2cc(O)cc(O)c12 [GNT, genistein] | did not significantly affect | – |
| CCN1C[C@]2(OC(=O)c3ccccc3NC(C)=O)CC[C@H](OC)[C@@]34[C@@H]2C[C@@H]([C@@H]13)[C@@]1(O)C[C@H](OC)[C@H]2C[C@@H]4[C@]1(O)[C@H]2OC [LA, lappaconitine] | – | certain safety factor (CSF) [1]: 1.01; standard safety margin (SSM) [1]: 1.0%; oral LD50 (mice): 32.4 mg/kg; oral LD50 (rats): 20 mg/kg; aqueous solubility in the medium [2]: 849.79 ± 36.95 µg/mL (≈ 1450 µM) |
| [N-]=[N+]=[N-].[Na+] [NaN3, sodium azide] | did not significantly affect | – |
| CCN1C[C@]2(OC(=O)c3ccccc3NC(C)=O)CC[C@H](OC)C34C1C(O)(C[C@@H]32)[C@@]1(O)C[C@H](OC)[C@H]2C[C@@H]4[C@]1(O)[C@H]2OC [RAN, ranaconitine] | – | aqueous solubility in the medium [2]: 582.06 ± 16.27 µg/mL (≈ 969 µM) |
| monensin sodium [MS] | did not significantly affect | – |
